Laboratory results taken from ChEMBL document CHEMBL1909046, “DrugMatrix in vitro pharmacology data”.

Experiments:
Estrogen receptor beta = Estrogen receptor beta (Homo sapiens, UniProt Q92731); conditions: sf9
Cytochrome P450 2C19 = Cytochrome P450 2C19 (Homo sapiens, UniProt P33261)
Glucocorticoid receptor = target: T1, Glucocorticoid receptor (Homo sapiens, UniProt P04150); conditions: hela s3
T1 sequence (P04150 whole entry): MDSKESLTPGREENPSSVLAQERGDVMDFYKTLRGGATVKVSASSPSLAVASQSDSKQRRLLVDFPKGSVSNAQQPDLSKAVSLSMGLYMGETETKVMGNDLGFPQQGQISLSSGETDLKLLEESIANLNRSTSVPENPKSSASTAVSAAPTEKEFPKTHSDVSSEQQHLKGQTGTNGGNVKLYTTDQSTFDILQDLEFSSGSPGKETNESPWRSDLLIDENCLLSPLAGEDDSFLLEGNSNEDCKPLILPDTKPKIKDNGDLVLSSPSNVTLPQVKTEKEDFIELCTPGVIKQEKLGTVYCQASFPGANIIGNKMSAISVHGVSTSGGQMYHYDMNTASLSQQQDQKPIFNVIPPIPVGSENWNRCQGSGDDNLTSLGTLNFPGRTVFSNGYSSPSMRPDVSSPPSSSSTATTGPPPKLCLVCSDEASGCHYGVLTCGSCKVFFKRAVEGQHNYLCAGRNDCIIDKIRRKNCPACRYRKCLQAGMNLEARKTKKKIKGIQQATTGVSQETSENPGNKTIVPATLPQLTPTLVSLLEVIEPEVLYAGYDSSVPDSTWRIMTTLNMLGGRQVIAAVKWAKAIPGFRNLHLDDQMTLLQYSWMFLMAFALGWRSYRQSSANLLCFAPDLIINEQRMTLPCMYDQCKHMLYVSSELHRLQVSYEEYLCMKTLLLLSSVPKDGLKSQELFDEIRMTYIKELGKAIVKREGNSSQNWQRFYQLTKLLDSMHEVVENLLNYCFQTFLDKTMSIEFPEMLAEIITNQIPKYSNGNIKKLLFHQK

Androgen receptor = target: T2, Androgen receptor (Rattus norvegicus, UniProt P15207)
T2 sequence (P15207 whole entry): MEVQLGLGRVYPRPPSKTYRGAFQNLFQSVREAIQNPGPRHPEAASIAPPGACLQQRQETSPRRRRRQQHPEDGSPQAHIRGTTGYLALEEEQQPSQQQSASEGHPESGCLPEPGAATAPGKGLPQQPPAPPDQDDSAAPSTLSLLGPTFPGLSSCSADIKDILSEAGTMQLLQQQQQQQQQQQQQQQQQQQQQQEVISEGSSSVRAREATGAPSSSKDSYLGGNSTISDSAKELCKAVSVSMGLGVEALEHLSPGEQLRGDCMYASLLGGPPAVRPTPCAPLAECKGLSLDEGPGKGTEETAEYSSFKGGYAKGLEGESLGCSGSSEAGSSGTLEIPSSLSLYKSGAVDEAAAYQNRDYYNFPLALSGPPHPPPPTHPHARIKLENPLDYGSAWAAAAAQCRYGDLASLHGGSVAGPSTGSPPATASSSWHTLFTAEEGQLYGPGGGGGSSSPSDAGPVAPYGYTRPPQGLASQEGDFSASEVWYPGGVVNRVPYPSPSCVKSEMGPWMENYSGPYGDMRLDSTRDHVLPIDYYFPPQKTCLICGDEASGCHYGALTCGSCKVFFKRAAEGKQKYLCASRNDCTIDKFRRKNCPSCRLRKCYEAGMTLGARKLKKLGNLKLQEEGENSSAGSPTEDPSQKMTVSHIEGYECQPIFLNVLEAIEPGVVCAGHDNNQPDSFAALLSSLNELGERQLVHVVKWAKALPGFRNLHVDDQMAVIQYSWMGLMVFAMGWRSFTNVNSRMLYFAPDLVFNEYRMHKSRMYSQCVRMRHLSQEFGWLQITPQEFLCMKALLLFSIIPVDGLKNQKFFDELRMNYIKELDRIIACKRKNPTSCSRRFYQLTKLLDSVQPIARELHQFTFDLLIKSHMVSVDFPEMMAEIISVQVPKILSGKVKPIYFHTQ

Cytochrome P450 1A2 = target: T3, Cytochrome P450 1A2 (Homo sapiens, UniProt P05177)
T3 sequence (P05177 whole entry): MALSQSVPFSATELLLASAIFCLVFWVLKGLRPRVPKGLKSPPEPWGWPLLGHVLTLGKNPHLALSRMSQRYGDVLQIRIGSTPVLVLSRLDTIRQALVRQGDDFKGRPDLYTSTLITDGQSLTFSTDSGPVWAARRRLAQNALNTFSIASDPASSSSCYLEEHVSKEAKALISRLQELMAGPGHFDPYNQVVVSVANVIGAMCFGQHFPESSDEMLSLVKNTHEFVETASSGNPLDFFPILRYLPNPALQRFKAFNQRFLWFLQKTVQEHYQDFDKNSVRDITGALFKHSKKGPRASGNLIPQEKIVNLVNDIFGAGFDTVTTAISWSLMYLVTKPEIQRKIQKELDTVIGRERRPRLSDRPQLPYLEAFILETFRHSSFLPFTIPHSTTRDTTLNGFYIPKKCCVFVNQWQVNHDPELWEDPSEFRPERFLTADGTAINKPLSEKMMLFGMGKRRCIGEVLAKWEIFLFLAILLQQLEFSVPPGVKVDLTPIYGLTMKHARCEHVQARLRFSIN

Cytochrome P450 2D6 = Cytochrome P450 2D6 (Homo sapiens, UniProt P10635)
Cytochrome P450 2C9 = Cytochrome P450 2C9 (Homo sapiens, UniProt P11712)
Note: in other assays of this panel Not Active means under 50% inhibition at 10 µM.

Estrogen receptor beta, sequence (Q92731 whole entry): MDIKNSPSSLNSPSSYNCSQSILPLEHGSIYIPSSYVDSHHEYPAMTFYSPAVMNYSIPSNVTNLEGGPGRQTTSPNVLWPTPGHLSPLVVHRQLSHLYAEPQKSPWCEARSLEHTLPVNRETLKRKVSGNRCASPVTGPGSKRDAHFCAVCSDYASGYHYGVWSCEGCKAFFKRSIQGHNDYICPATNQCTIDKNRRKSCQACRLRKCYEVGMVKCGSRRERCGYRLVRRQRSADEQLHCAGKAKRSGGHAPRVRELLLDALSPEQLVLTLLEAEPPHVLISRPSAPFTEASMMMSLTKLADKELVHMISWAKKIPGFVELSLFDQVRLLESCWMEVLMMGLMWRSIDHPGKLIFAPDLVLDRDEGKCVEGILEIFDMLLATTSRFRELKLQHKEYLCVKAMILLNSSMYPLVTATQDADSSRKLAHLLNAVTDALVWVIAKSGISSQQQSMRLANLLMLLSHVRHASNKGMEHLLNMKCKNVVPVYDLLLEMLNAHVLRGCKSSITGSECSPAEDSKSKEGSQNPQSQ
Cytochrome P450 2C19, sequence (P33261 whole entry): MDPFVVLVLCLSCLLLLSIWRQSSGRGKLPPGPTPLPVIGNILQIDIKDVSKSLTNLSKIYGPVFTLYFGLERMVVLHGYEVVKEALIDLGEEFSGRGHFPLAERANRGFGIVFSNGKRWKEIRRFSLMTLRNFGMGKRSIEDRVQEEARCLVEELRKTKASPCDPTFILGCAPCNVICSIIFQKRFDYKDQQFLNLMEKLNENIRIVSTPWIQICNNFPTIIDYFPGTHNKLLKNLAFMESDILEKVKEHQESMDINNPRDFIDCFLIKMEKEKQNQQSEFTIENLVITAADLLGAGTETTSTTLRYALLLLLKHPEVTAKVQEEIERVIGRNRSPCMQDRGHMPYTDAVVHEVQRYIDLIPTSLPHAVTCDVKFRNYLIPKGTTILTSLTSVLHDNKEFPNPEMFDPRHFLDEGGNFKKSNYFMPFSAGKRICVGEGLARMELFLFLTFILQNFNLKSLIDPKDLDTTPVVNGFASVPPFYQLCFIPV
Cytochrome P450 2D6, sequence (P10635 whole entry): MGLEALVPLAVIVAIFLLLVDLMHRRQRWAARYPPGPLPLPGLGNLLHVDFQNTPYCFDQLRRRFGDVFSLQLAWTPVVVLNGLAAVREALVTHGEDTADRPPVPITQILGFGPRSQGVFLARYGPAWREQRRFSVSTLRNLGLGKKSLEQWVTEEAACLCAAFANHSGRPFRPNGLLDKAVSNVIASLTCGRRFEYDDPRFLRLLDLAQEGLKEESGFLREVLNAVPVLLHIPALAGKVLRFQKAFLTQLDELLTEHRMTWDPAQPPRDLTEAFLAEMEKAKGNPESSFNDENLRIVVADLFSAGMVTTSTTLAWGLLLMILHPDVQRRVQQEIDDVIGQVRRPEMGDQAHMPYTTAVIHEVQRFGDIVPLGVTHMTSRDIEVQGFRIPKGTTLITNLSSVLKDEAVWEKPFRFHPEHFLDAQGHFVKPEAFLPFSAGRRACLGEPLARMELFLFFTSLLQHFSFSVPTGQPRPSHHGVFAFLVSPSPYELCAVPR
Cytochrome P450 2C9, sequence (P11712 whole entry): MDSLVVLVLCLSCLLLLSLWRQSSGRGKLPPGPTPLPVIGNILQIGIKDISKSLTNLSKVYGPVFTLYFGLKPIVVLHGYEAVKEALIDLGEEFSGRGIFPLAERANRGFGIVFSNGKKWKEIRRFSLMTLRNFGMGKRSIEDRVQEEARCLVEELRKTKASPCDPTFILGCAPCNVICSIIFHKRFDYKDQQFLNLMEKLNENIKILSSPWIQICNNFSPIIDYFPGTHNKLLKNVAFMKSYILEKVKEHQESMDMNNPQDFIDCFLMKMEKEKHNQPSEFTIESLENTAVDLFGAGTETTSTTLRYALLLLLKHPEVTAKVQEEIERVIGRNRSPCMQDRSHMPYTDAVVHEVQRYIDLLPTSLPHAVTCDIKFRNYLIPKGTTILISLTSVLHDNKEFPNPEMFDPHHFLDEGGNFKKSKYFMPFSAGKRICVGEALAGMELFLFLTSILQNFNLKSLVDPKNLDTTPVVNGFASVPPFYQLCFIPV

Row | Compound | IC50 (Estrogen receptor beta) | IC50 (Glucocorticoid receptor) | further results
1 | C#C[C@]1(O)CC[C@H]2[C@@H]3[C@H](C)CC4=C(CCC(=O)C4)[C@H]3CC[C@@]21C [TIBOLONE] | Not Active |  | IC50 (Cytochrome P450 2C19): 3000 nM
2 | CN1C(=O)OC(C)(C)C1=O [TRIMETHADIONE] | Not Active | Not Active | 
3 | CCN(CC)C(=S)SSC(=S)N(CC)CC | Not Active | Not Active | IC50 (Androgen receptor): Not Active; IC50 (Cytochrome P450 1A2): 4000 nM
4 | O=C(O)c1cc(/N=N/c2ccc(S(=O)(=O)Nc3ccccn3)cc2)ccc1O [SULFASALAZINE] | Not Active | Not Active | 
5 | CC(C)(C)NC[C@H](O)COc1cccc2c1CCCC2=O [LEVOBUNOLOL] | Not Active | Not Active | 
6 | C[N+]1(C)[C@@H]2C[C@@H](OC(=O)[C@H](CO)c3ccccc3)C[C@H]1[C@@H]1O[C@@H]12.[Br-] [METHSCOPOLAMINE BROMIDE] |  | Not Active | 
7 | CO[C@@H]1[C@@H](OC)[C@H](C)[C@@](O)(CC(=O)O)O[C@H]1[C@H](C)[C@H]1O[C@@]2(CC[C@@](C)([C@H]3CC[C@@](C)([C@@H]4O[C@@H]([C@H]5O[C@](C)(O)[C@H](C)C[C@@H]5C)C[C@@H]4O[C@@H]4C[C@H](OC)[C@@H](OC)[C@H](C)O4)O3)O2)C[C@H](O)[C@H]1C.N [MADURAMICIN] |  | Not Active | 
8 | Cc1nnc(NS(=O)(=O)c2ccc(N)cc2)s1 [SULFAMETHIZOLE] |  |  | IC50 (Androgen receptor): Not Active
9 | Cc1cnc(NC(=O)C2=C(O)c3ccccc3S(=O)(=O)N2C)s1 [MELOXICAM] | Not Active | Not Active | 
10 | CC1=C(/C=C/C(C)=C/C=C/C(C)=C/C(=O)O)C(C)(C)CCC1 [TRETINOIN] |  | Not Active | 
11 | Cc1ccc(S(=O)(=O)NC(=O)NN2CCCCCC2)cc1 [TOLAZAMIDE] | Not Active | Not Active | 
12 | Cc1cccc(C)c1NC(=O)C(C)N (stereo not drawn) [TOCAINIDE] | Not Active | Not Active | 
13 | Cc1cc2c(s1)Nc1ccccc1N=C2N1CCN(C)CC1 [OLANZAPINE] |  | Not Active | 
14 | COC(=O)Nc1nc2ccc(C(=O)c3ccccc3)cc2[nH]1 [MEBENDAZOLE] |  | Not Active | IC50 (Androgen receptor): Not Active
15 | O=C1CC[C@@]2(O)[C@H]3Cc4ccc(O)c5c4[C@@]2(CCN3CC2CC2)[C@H]1O5 [NALTREXONE] | Not Active | Not Active | 
16 | CCN(CC)CCNC(=O)c1cc(Cl)c(N)cc1OC [METOCLOPRAMIDE] | Not Active |  | IC50 (Cytochrome P450 2D6): 800 nM
17 | CCOc1cc(N)c(Cl)cc1C(=O)NCC1CN(Cc2ccc(F)cc2)CCO1 (stereo not drawn) [MOSAPRIDE] | Not Active | Not Active | IC50 (Cytochrome P450 2C9): 1000 nM; IC50 (Cytochrome P450 2C19): 1000 nM; IC50 (Cytochrome P450 1A2): 400 nM
18 | Cc1ccc(Cl)c(Nc2ccccc2C(=O)O)c1Cl [MECLOFENAMIC ACID] | Not Active | Not Active | 
19 | CN1C[C@H](CNC(=O)OCc2ccccc2)C[C@@H]2c3cccc4c3c(cn4C)C[C@H]21 [METERGOLINE] | Not Active | Not Active | 
20 | O=[As][O-].[Na+] [SODIUM ARSENITE] | Not Active | Not Active | IC50 (Androgen receptor): Not Active
21 | CCN1CCCC1CNC(=O)c1cc(S(N)(=O)=O)ccc1OC (stereo not drawn) [SULPIRIDE] | Not Active | Not Active | IC50 (Androgen receptor): Not Active

Row | Compound | IC50 (Estrogen receptor beta) | IC50 (Glucocorticoid receptor) | further results
22 | CCC(C)(C)C(=O)O[C@H]1C[C@@H](C)C=C2C=C[C@H](C)[C@H](CC[C@@H]3C[C@@H](O)CC(=O)O3)[C@H]21 [SIMVASTATIN] | Not Active | Not Active | 
23 | Cc1ccnc(NS(=O)(=O)c2ccc(N)cc2)n1 [SULFAMERAZINE] |  | Not Active | 
24 | CC#C[C@]1(O)CC[C@H]2[C@@H]3CCC4=CC(=O)CCC4=C3[C@@H](c3ccc(N(C)C)cc3)C[C@@]21C [MIFEPRISTONE] | Not Active |  | 
25 | LEAD(IV) ACETATE | Not Active | Not Active | IC50 (Androgen receptor): Not Active; Ki (Androgen receptor): Not Active; Ki (Estrogen receptor beta): Not Active; Ki (Glucocorticoid receptor): Not Active
26 | O=C(OC[C@H]1O[C@@H](OC(=O)c2cc(O)c(O)c(OC(=O)c3cc(O)c(O)c(O)c3)c2)[C@H](OC(=O)c2cc(O)c(O)c(OC(=O)c3cc(O)c(O)c(O)c3)c2)[C@@H](OC(=O)c2cc(O)c(O)c(OC(=O)c3cc(O)c(O)c(O)c3)c2)[C@@H]1OC(=O)c1cc(O)c(O)c(OC(=O)c2cc(O)c(O)c(O)c2)c1)c1cc(O)c(O)c(OC(=O)c2cc(O)c(O)c(O)c2)c1 [TANNIC ACID] |  | Not Active | IC50 (Cytochrome P450 2C9): 4610 nM; IC50 (Cytochrome P450 1A2): 919 nM
27 | CN(C)CCC=C1c2ccccc2COc2ccccc21 [DOXEPIN] |  | Not Active | IC50 (Androgen receptor): Not Active
28 | Oc1ccc(/C=C/c2cc(O)cc(O)c2)cc1 [RESVERATROL] |  |  | IC50 (Androgen receptor): Not Active
29 | CC[C@@]1(O)C(=O)OCc2c1cc1n(c2=O)Cc2cc3c(CN(C)C)c(O)ccc3nc2-1 [TOPOTECAN] | Not Active | Not Active | 
30 | C=CCc1ccc2c(c1)OCO2 [SAFROLE] | Not Active | Not Active | IC50 (Cytochrome P450 1A2): 10000 nM
31 | C1CCN2C[C@@H]3C[C@@H](CN4CCCC[C@@H]34)[C@H]2C1 [SPARTEINE] | Not Active | Not Active | 
32 | CC[C@H](C)C(=O)O[C@H]1CCC=C2C=C[C@H](C)[C@H](CC[C@@H]3C[C@@H](O)CC(=O)O3)[C@H]21 [MEVASTATIN] | Not Active | Not Active | IC50 (Androgen receptor): Not Active
33 | CS(=O)(=O)c1ccc(C2=C(c3ccccc3)C(=O)OC2)cc1 [ROFECOXIB] | Not Active | Not Active | 
34 | Cc1cn([C@H]2C=C[C@@H](CO)O2)c(=O)[nH]c1=O [STAVUDINE] | Not Active |  | 
35 | CNCCCC12CCC(c3ccccc31)c1ccccc12 [MAPROTILINE] | Not Active | Not Active | 
36 | Nc1nc(N)c2nc(-c3ccccc3)c(N)nc2n1 | Not Active | Not Active | IC50 (Androgen receptor): Not Active; IC50 (Cytochrome P450 2D6): 10000 nM
37 | Cc1[nH]c(=O)c(C#N)cc1-c1ccncc1 [MILRINONE] | Not Active |  | 
38 | C[C@]12CCC(=O)C[C@@H]1CC[C@@H]1[C@@H]2CC[C@]2(C)[C@@H](O)CC[C@@H]12 [STANOLONE] | Not Active | Not Active | 
39 | CC1(C)[C@H](C(=O)O)N2C(=O)C[C@H]2S1(=O)=O [SULBACTAM] | Not Active | Not Active | 
40 | CC(N)C12CC3CC(CC(C3)C1)C2 (stereo not drawn) [RIMANTADINE] | Not Active | Not Active | 
41 | CO[C@@]12[C@H](COC(N)=O)C3=C(C(=O)C(C)=C(N)C3=O)N1C[C@@H]1N[C@@H]12 [MITOMYCIN] | Not Active | Not Active | 
